Reference: PubChem BioAssay (NCI)
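GI50: concentration for 50% inhibition of growth. TGI marks complete inhibition of growth.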

Legend:
Test in all cases: growth of human tumour cells (NCI), 384-well format; in the data active = GI50 below about 0.43 µM; inactive = the rest
[1] = system: 786-0 renal
[2] = system: A498 renal
[3] = system: A549 NSCLC
[4] = system: ACHN renal
[5] = system: CAKI-1 renal
[6] = system: CCRF-CEM leukemia
[7] = system: DU-145 prostate
[8] = system: EKVX NSCLC
[9] = system: HCT-116 colon
[10] = system: HCT-15 colon
[11] = system: HOP-62 NSCLC
[12] = system: HOP-92 NSCLC
[13] = system: HS 578T breast
[14] = system: HT29 colon
[15] = system: IGROV1 ovarian
[16] = system: K-562 leukemia
[17] = system: KM12 colon
[18] = system: LOX IMVI melanoma
[19] = system: M14 melanoma
[20] = system: MALME-3M melanoma
[21] = system: MCF7 breast
[22] = system: MDA-MB-231 breast
[23] = system: MOLT-4 leukemia
[24] = system: NCI-H226 lung
[25] = system: NCI-H23 lung
[26] = system: NCI-H322M lung
[27] = system: NCI-H522 lung
[28] = system: NCI/ADR-RES ovarian
[29] = system: OVCAR-3 ovarian
[30] = system: OVCAR-4 ovarian
[31] = system: OVCAR-5 ovarian
[32] = system: PC-3 prostate
[33] = system: RPMI-8226 leukemia
[34] = system: SF-295 CNS
[35] = system: SF-539 CNS
[36] = system: SK-MEL-2 melanoma
[37] = system: SK-MEL-28 melanoma
[38] = system: SK-OV-3 ovarian
[39] = system: SN12C renal
[40] = system: SNB-19 CNS
[41] = system: SNB-75 CNS
[42] = system: SR leukemia
[43] = system: TK-10 renal
[44] = system: U251 glioblastoma
[45] = system: UACC-257 melanoma
[46] = system: UACC-62 melanoma
[47] = system: UO-31 renal

CC(O)[C@H](NC(=O)N[C@@H](CC(N)=O)c1nc(N2CCNCC2)no1)C(=O)O (some centres undefined)
inactive: GI50 [1] > 100 µM | GI50 [2] > 100 µM | GI50 [3] > 100 µM | GI50 [4] > 100 µM | GI50 [5] > 100 µM | GI50 [6] > 100 µM | GI50 [7] > 100 µM | GI50 [8] > 100 µM | GI50 [9] > 100 µM | GI50 [10] > 100 µM | GI50 [11] > 100 µM | GI50 [12] > 100 µM | GI50 [13] > 100 µM | GI50 [14] > 100 µM | GI50 [15] > 100 µM | GI50 [16] > 100 µM | GI50 [17] > 100 µM | GI50 [18] > 100 µM | GI50 [19] > 100 µM | GI50 [20] > 100 µM | GI50 [21] > 100 µM | GI50 [22] > 100 µM | GI50 [23] > 100 µM | GI50 [24] > 100 µM | GI50 [25] > 100 µM | GI50 [26] > 100 µM | GI50 [27] > 100 µM | GI50 [28] > 100 µM | GI50 [29] > 100 µM | GI50 [30] > 100 µM | GI50 [31] > 100 µM | GI50 [32] > 100 µM | GI50 [33] > 100 µM | GI50 [34] > 100 µM | GI50 [35] > 100 µM | GI50 [36] > 100 µM | GI50 [37] > 100 µM | GI50 [38] > 100 µM | GI50 [39] > 100 µM | GI50 [40] > 100 µM | GI50 [41] > 100 µM | GI50 [42] > 100 µM | GI50 [43] > 100 µM | GI50 [44] > 100 µM | GI50 [45] > 100 µM | GI50 [46] > 100 µM | GI50 [47] > 100 µM
> 100 µM: TGI [1] | TGI [2] | TGI [3] | TGI [4] | TGI [5] | TGI [6] | TGI [7] | TGI [8] | TGI [9] | TGI [10] | TGI [11] | TGI [12] | TGI [13] | TGI [14] | TGI [15] | TGI [16] | TGI [17] | TGI [18] | TGI [19] | TGI [20] | TGI [21] | TGI [22] | TGI [23] | TGI [24] | TGI [25] | TGI [26] | TGI [27] | TGI [28] | TGI [29] | TGI [30] | TGI [31] | TGI [32] | TGI [33] | TGI [34] | TGI [35] | TGI [36] | TGI [37] | TGI [38] | TGI [39] | TGI [40] | TGI [41] | TGI [42] | TGI [43] | TGI [44] | TGI [45] | TGI [46] | TGI [47]
